Test results as given in PubChem BioAssay (NCI).
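Protocol summary: plate cells (96-well), add compound at 5 concentrations, incubate 48 h, interpolate endpoints linearly. The concentration for full growth arrest is given as TGI.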

What was measured:
Assay in all cases: inhibition of tumour cell growth, NCI panel, 48 h
786-0 renal = tested on: 786-0 renal
A549 NSCLC = tested on: A549 NSCLC
ACHN renal = tested on: ACHN renal
CCRF-CEM leukemia = tested on: CCRF-CEM leukemia
COLO 205 colon = tested on: COLO 205 colon
DLD-1 colon = tested on: DLD-1 colon
DMS 114 small cell lung = tested on: DMS 114 small cell lung
DMS 273 small cell lung = tested on: DMS 273 small cell lung
EKVX NSCLC = tested on: EKVX NSCLC
HCC-2998 colon = tested on: HCC-2998 colon
HCT-116 colon = tested on: HCT-116 colon
HCT-15 colon = tested on: HCT-15 colon
HL-60(TB) leukemia = tested on: HL-60(TB) leukemia
HOP-62 NSCLC = tested on: HOP-62 NSCLC
HOP-92 NSCLC = tested on: HOP-92 NSCLC
HT29 colon = tested on: HT29 colon
IGROV1 ovarian = tested on: IGROV1 ovarian
K-562 leukemia = tested on: K-562 leukemia
KM12 colon = tested on: KM12 colon
KM20L2 colon = tested on: KM20L2 colon
LOX IMVI melanoma = tested on: LOX IMVI melanoma
LXFL 529 NSCLC = tested on: LXFL 529 NSCLC
M14 melanoma = tested on: M14 melanoma
M19-MEL melanoma = tested on: M19-MEL melanoma
MALME-3M melanoma = tested on: MALME-3M melanoma
MOLT-4 leukemia = tested on: MOLT-4 leukemia
NCI-H23 lung = tested on: NCI-H23 lung
NCI-H460 lung = tested on: NCI-H460 lung
NCI-H522 lung = tested on: NCI-H522 lung
OVCAR-3 ovarian = tested on: OVCAR-3 ovarian
OVCAR-4 ovarian = tested on: OVCAR-4 ovarian
OVCAR-5 ovarian = tested on: OVCAR-5 ovarian
OVCAR-8 ovarian = tested on: OVCAR-8 ovarian
RPMI-8226 leukemia = tested on: RPMI-8226 leukemia
RXF 393 renal = tested on: RXF 393 renal
RXF-631 renal = tested on: RXF-631 renal
SF-268 CNS = tested on: SF-268 CNS
SF-295 CNS = tested on: SF-295 CNS
SF-539 CNS = tested on: SF-539 CNS
SK-MEL-2 melanoma = tested on: SK-MEL-2 melanoma
SK-MEL-28 melanoma = tested on: SK-MEL-28 melanoma
SK-MEL-5 melanoma = tested on: SK-MEL-5 melanoma
SN12C renal = tested on: SN12C renal
SNB-19 CNS = tested on: SNB-19 CNS
SNB-75 CNS = tested on: SNB-75 CNS
SNB-78 CNS = tested on: SNB-78 CNS
SW-620 colon = tested on: SW-620 colon
TK-10 renal = tested on: TK-10 renal
U251 CNS = tested on: U251 CNS
UACC-257 melanoma = tested on: UACC-257 melanoma
UACC-62 melanoma = tested on: UACC-62 melanoma
UO-31 renal = tested on: UO-31 renal
XF 498 CNS = tested on: XF 498 CNS

## CC12Nc3ccccc3C1=C(c1ccccc1)CC1C(=O)OC(=O)C12 (stereo not drawn)
786-0 renal
  TGI: > 100 µM
A549 NSCLC
  TGI: > 100 µM
ACHN renal
  TGI: > 100 µM
CCRF-CEM leukemia
  TGI: > 100 µM
COLO 205 colon
  TGI: > 100 µM
DLD-1 colon
  TGI: > 100 µM
DMS 114 small cell lung
  TGI: > 100 µM
DMS 273 small cell lung
  TGI: > 100 µM
EKVX NSCLC
  TGI: > 100 µM
HCC-2998 colon
  TGI: > 100 µM
HCT-116 colon
  TGI: > 100 µM
HCT-15 colon
  TGI: > 100 µM
HL-60(TB) leukemia
  TGI: > 100 µM
HOP-62 NSCLC
  TGI: > 100 µM
HOP-92 NSCLC
  TGI: > 100 µM
HT29 colon
  TGI: > 100 µM
IGROV1 ovarian
  TGI: > 100 µM
K-562 leukemia
  TGI: > 100 µM
KM12 colon
  TGI: > 100 µM
KM20L2 colon
  TGI: > 100 µM
LOX IMVI melanoma
  TGI: > 100 µM
LXFL 529 NSCLC
  TGI: > 100 µM
M14 melanoma
  TGI: > 100 µM
M19-MEL melanoma
  TGI: > 100 µM
MALME-3M melanoma
  TGI: > 100 µM
MOLT-4 leukemia
  TGI: > 100 µM
NCI-H23 lung
  TGI: > 100 µM
NCI-H460 lung
  TGI: > 100 µM
NCI-H522 lung
  TGI: > 100 µM
OVCAR-3 ovarian
  TGI: > 100 µM
OVCAR-4 ovarian
  TGI: > 100 µM
OVCAR-5 ovarian
  TGI: > 100 µM
OVCAR-8 ovarian
  TGI: > 100 µM
RPMI-8226 leukemia
  TGI: > 100 µM
RXF 393 renal
  TGI: > 100 µM
RXF-631 renal
  TGI: > 100 µM
SF-268 CNS
  TGI: > 100 µM
SF-295 CNS
  TGI: > 100 µM
SF-539 CNS
  TGI: > 100 µM
SK-MEL-2 melanoma
  TGI: > 100 µM
SK-MEL-28 melanoma
  TGI: > 100 µM
SK-MEL-5 melanoma
  TGI: > 100 µM
SN12C renal
  TGI: > 100 µM
SNB-19 CNS
  TGI: > 100 µM
SNB-75 CNS
  TGI: 73.7 µM
SNB-78 CNS
  TGI: > 100 µM
SW-620 colon
  TGI: > 100 µM
TK-10 renal
  TGI: > 100 µM
U251 CNS
  TGI: > 100 µM
UACC-257 melanoma
  TGI: > 100 µM
UACC-62 melanoma
  TGI: > 100 µM
UO-31 renal
  TGI: > 100 µM
XF 498 CNS
  TGI: > 100 µM
